Assay results as given in patent US5231091A, “Bis-arylphosphate ester antagonists of platelet activating factor” (priority 1992, dated 1993).
Counter-ions that a name gives are not always drawn.

Columns and labels:
[1] = tested on: endotoxin induced mortality; assay: Endotoxin induced shock and mortality in mice; format: in vivo, mouse (male Balb/c)
Description: The test compounds (PAF antagonists) were also efficacious when administered iv prior to a lethal iv injection of endotoxin (Table IX).

PAF receptor [2] = biological target: T1, PAF receptor (Oryctolagus cuniculus, UniProt G1TEI7); assay: Inhibition of PAF-induced aggregation in washed rabbit platelets; format: cell-based; details: PAF challenge 5E-9M, number of experiments in parentheses
T1 construct: endogenous in cells; host or cells: rabbit platelets (male New Zealand White)
Experimental: (§1) Test compounds were evaluated as PAF receptor antagonists in vitro by measuring inhibition of PAF (platelet activating factor) induced platelet aggregation. Platelet aggregation was measured by a modification of the method described in A. Wissner, et. al., J. Med. Chem., 27, 1174, 1984.
(§2) L-PAF was obtained from Calbiochem. A stock solution of 1-2 E-3M was prepared in 10% ethanol in water or 100% methanol and serial working dilutions were made using phosphate buffered saline (PBS). 1-2 E-3M stock solutions of test compounds were prepared in 100% methanol and serially diluted in PBS. All solutions were made up in plastic tubes, stored on ice and protected from heat and light. Solutions were prepared fresh or frozen at -20° C. and used within 48 hours.
More specifically, […] for 1-2 minutes at 37° C. in the aggregometer to achieve a stable baseline, then 50 μl of PBS or test compound, was added and incubated for 5 minutes before addition of the challenge concentration of PAF (final concentration of 5E-8M or 1E-7M, as determined from the dose response curve for PAF for that experiment). Aggregation was monitored for 5 minutes. Samples containing test compound or diluent were run simultaneously for comparison. Test compounds were initially evaluated at a screening concentration of 1E-5M. […]

PAF receptor [3] = biological target: T2, PAF receptor (Homo sapiens, UniProt P25105); assay: Inhibition of PAF-induced aggregation in human platelet rich plasma; format: cell-based; details: PAF challenge 1E-6M, number of experiments in parentheses
T2 construct: Blood from healthy volunteers was collected; endogenous in cells; host or cells: human platelets (healthy volunteers)
Experimental: as §1, §2
(§3) Incubation mixtures consisted of 400 μl PRP, 50 μl of PBS diluent or test compound and 50 μl of PAF agonist. More specifically, 400 μl of PRP was stabilized in a cuvette for 1-2 minutes at 37° C. in the aggregometer to achieve a stable baseline, then 50 μl of PBS or test compound, was added and incubated for 5 minutes before addition of the challenge concentration of PAF (final concentration of 5E-8M or 1E-7M, as determined from the dose response curve for PAF for that experiment). Aggregation was monitored for 5 minutes. Samples containing test compound or diluent were run simultaneously for comparison. Test compounds were initially evaluated at a screening concentration of 1E-5M.
(§4) The recording equipment consisted of a dual channel Chronolog aggregometer connected to a dual channel 10 MV full scale deflection Omniscribe chart recorder (Houston Instruments). […] The bead suspension was used to set the 0% light transmission mark and clear water was used to set the 100% light transmission mark. These limits defined a full scale deflection. The aggregation traces were analyzed by a digitizing method (C. Kohler and B. Zoltan, J. Pharm. Methods, 12, 113, 1984) with x, y coordinate data stored in a computer file. A suitable program computed parameters of interest such as the magnitude of aggregation.
In some experiments, human PRP was used instead of rabbit PRP. Blood from healthy volunteers was collected in Vacutainers® containing the Na citrate diluent and processed in a manner similar to rabbit blood to obtain the PRP. For these experiments, the challenge concentration of PAF was 1E-6M.

PAF induced lethality = PAF induced lethality in mice; format: in vivo; details: corrected for control lethality
Experimental: PAF given I.V. to mice causes an immediate hypotensive shock leading to death in 1 hour or less. Compounds were given intraperitoneally or P.O. at various times before the PAF challenge. Animals alive after 2 hours were counted and the activity of test compounds expressed as % survival corrected for any control (saline treated) animals which survived the PAF challenge.

PAF induced skin lesions = assay: Guinea pig vascular permeability (skin lesion) model; format: in vivo, guinea pig (Hartley)
PAF receptor [4] = biological target: T1, PAF receptor; assay: Inhibition of PAF-induced aggregation in rabbit platelet rich plasma; format: cell-based, rabbit (male New Zealand White); details: rabbit platelet rich plasma; PAF challenge 5E-8M; number of experiments in parentheses; read-out: IC50 inhibition of PAF-induced aggregation
Experimental: as §1
Approximately 120-240 ml of blood were collected by cardiac puncture from unanesthetized male New Zealand White rabbits (Whaley's Summit View Farms, Belvedere, N.J.) with the use of 3.2% sodium citrate anticoagulant (1 part of citrate/10 parts of blood). All syringes and pipets were plastic. The blood was gently mixed and immediately centrifuged at 800 rpm for 10-15 minutes at room temperature to recover the platelet rich plasma (PRP). Platelet poor plasma (PPP) was prepared by centrifuging PRP at 2800 rpm for 10 minutes at room temperature.
Dilutions (1:3000) of PRP in Isoton® diluent were made and platelet counts were determined on a Coulter Thrombocounter which was standardized with platelet reference standards (Interscience Platelet Control, Portland, Oreg.). PRP platelet counts were adjusted to approximately 400,000-500,000 platelets/μl by the addition of PPP.
as §2, §3, §4

LPS induced hypotension = assay: Endotoxin (LPS) induced hypotension in rats; format: in vivo, rat (male Wistar); details: anesthetized rats; 10 ug/kg intraarterially 5 minutes after LPS 15 mg/kg I.V.
Experimental: Bacterial cell wall lipopolysaccharide from E. coli strain 0111:B4 (Sigma #L-2630) was dissolved in saline at a concentration of 3.75 mg/ml and administered to rats at 15 mg/kg I.V. Test compounds were dissolved in saline at 1 mg/ml, diluted to 10 ug/ml, and injected intraarterially at 1 ml/kg (10 ug/kg). Male wistar strain rats were obtained from Charles River Labs and maintained according to ALAC standards. They were anesthetized with 30 mg/kg pentobarbital ip with supplementation as needed. The throat was opened, the left carotid artery was cannulated with PE-10 tubing and the trachea cannulated with 0.100 O.D. tubing. Ventilation was maintained by a Harvard Apparatus small animal pump at a rate sufficient to nearly abolish spontaneous respiration.

[5] = 10 mg/kg IP 2 hours prior to IP endotoxin
[6] = footnote c: I.P. 4 mg/kg 1 hour before PAF

T2 sequence (P25105 whole entry): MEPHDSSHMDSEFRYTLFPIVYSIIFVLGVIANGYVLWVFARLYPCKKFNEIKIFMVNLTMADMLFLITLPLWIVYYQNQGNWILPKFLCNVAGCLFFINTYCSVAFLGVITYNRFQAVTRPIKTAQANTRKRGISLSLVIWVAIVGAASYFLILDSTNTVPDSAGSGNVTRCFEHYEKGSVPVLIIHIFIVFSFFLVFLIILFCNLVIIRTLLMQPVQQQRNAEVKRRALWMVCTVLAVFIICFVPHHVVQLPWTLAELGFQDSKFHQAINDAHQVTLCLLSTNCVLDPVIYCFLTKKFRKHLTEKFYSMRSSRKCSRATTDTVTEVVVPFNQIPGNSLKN
T1 sequence (G1TEI7 1-342): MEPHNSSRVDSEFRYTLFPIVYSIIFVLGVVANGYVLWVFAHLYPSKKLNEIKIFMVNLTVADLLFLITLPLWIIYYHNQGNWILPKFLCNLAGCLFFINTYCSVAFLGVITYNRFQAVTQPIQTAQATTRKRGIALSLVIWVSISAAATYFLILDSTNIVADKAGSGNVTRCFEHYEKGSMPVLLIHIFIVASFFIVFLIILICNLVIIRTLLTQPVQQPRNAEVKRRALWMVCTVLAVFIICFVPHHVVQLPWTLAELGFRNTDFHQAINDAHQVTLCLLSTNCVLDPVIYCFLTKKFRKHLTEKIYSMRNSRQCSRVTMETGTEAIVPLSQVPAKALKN

| SMILES | 24 hour survival, treated [1, 5] | IC50 (PAF receptor [3]) [nM] | IC50 (PAF receptor [4]) [nM] | other results |
| --- | --- | --- | --- | --- |
| CCCCCCCCCCCCOc1cc(C(C)(C)C)c(OP(=O)([O-])Oc2cccc(C[n+]3ccsc3)c2)cc1C(C)(C)C [3-[[3-[[[2,5-Bis(1,1-dimethylethyl)-4-(dodecyloxy)phenoxy]hydroxyphosphinyl]oxy]phenyl]methyl]thiazolium, hydroxide, inner salt] | 4/20 | 1930 |  | 24 hour survival, treated ([1]; 20 mg/kg IP 2 hours prior to IP endotoxin): 6/20; 24 hour survival, treated ([1]; 40 mg/kg IP 2 hours prior to IP endotoxin): 6/20; IC50 (PAF receptor [2]): 2.12 nM; PAF induced lethality, % protection (PAF induced lethality; [6]): 27%; PAF induced skin lesions, % of control (PAF induced skin lesions; footnote d: P.O. 5 mg/kg 4 hours before PAF): 49% |
| CCCCCCCCCCCCCCOc1cccc(OP(=O)([O-])Oc2cccc(C[n+]3ccsc3)c2)c1OC [3-[[3-[[Hydroxy]2-methoxy-3-(tetradecyloxy)phenoxy]-phosphinyl]oxy]phenyl]methyl]-thiazolium, hydroxide inner salt] | 7/30 | 26400 | 7500 | 24 hour survival, treated ([1]; 30 mg/kg IP 2 hours prior to IP endotoxin, control 4/50): 12/50; Survival after 24 hrs., treated ([1]; Table IX, 10 mg/kg iv prior to iv endotoxin, footnote prints IP, control 0/20): 4/20; % reversal of LPS induced hypotension (fall in mean arterial pressure) (LPS induced hypotension): 89%; PAF induced lethality, % protection (PAF induced lethality; I.P. 10 mg/kg): 12%; PAF induced skin lesions, % of control (PAF induced skin lesions; [6]): 75% |
| CCCCCCCCCCCCOc1cc(C(C)(C)C)c(OP(=O)([O-])Oc2cccc(C[n+]3cccc4ccccc43)c2)cc1C(C)(C)C [1-[[3-[[[2,5-Bis(1,1-dimethylethyl)-4-(dodecyloxy)phenoxy] hydroxyphosphinyl]oxy]phenyl]methyl]quinolinium, hydroxide, inner salt] |  | 47500 | 1360 |  |
| CCCCCCCCCCCCCCCCOc1cccc(OP(=O)([O-])Oc2cccc(C[n+]3ccsc3)c2)c1 [3-[[3-[[[3-(Hexadecyloxy)phenoxy]hydroxyphosphinyl]-oxy]phenyl]methyl]-thiazolium, hydroxide, inner salt] |  | 2500 | 2130 |  |
| CCCCCCCCCCCCCCCCOc1cccc(OP(=O)([O-])Oc2cccc(C[n+]3ccsc3)c2)c1C [3-[[3-[[[3-(Hexadecyloxy)-2-methylphenoxy]hydroxyphosphinyl]oxy]phenyl]methyl]-thiazolium, hydroxide, inner salt] |  | 119 | 2650 |  |
